Values after ≈ are worked out from the molar mass of the structure shown.

The test system of data set [1] is PC-3. In words: Cytotoxicity against human PC3 cells. It is filed as functional. The note with it: read-out: ED50 (the source's name).
The subject of data set [2] is MIA PaCa-2. In words: Cytotoxicity against human MIAPaCa2 cells. It is filed as functional. To be noted: read-out: ED50 (the source's name).
Data set [3] concerns MCF7. In words: Cytotoxicity against human MCF7 cells. The note with it: read-out: ED50 (the source's name). It is filed as functional.
Data set [4] deals with A498. Description: Cytotoxicity against human A498 cells. The note with it: read-out: ED50 (the source's name). It is filed as functional.
Data set [5] deals with Artemia. In words: Toxicity to brine shrimp. The note with it: in vivo. It is filed as organism-based.
The test system of data set [6] is A549. Description: Cytotoxicity against human A549 cells. It is filed as functional. To be noted: read-out: ED50 (the source's name).
Data set [7] relates to HT-29. In words: Cytotoxicity against human HT29 cells. It is filed as functional. The note with it: read-out: ED50 (the source's name).

On to `CCCCCCCCCCCC[C@@H](O)[C@H](O)CC[C@H](O)[C@@H]1CC[C@@H](C[C@H](O)CCCCC[C@@H](O)CC2=C[C@H](C)OC2=O)O1` [ANNOPENTOCIN A], for which the EC50 in data set [1] is 1.14 mg/L (≈ 1.86 µM); in data set [2], 0.0358 mg/L (≈ 0.0584 µM); in data set [3] it was 17.9 mg/L (≈ 29.3 µM); in data set [4], 0.607 mg/L (≈ 0.99 µM); in data set [6] it was 0.171 mg/L (≈ 0.279 µM); in data set [7] it was 1.63 mg/L (≈ 2.66 µM). In addition, the LC50 in data set [5] came to 8.9 ppm.

Take `CCCCCCCCCCCC[C@H](O)[C@@H](O)CC[C@H](O)[C@@H]1CC[C@@H](C[C@H](O)CCCCC[C@@H](O)CC2=C[C@H](C)OC2=O)O1` [ANNOPENTOCIN B]: the EC50 in data set [1] worked out at 0.212 mg/L (≈ 0.346 µM); in data set [2], 0.162 mg/L (≈ 0.264 µM); in data set [3], 3.56 mg/L (≈ 5.81 µM); in data set [4], 0.379 mg/L (≈ 0.618 µM); in data set [6], 0.0274 mg/L (≈ 0.0447 µM); in data set [7] it was 1.64 mg/L (≈ 2.68 µM). Besides, in data set [5], the LC50 is given as 11.2 ppm.

As for `CCCCCCCCCCCC[C@H](O)[C@H](O)CC[C@H](O)[C@@H]1CC[C@@H](C[C@H](O)CCCCC[C@@H](O)CC2=C[C@H](C)OC2=O)O1` [ANNOPENTOCIN C], the EC50 in data set [1] turned out to be 0.228 mg/L (≈ 0.372 µM); in data set [2], 0.428 mg/L (≈ 0.698 µM); in data set [3], 2.97 mg/L (≈ 4.85 µM); in data set [4] it was 0.258 mg/L (≈ 0.421 µM); in data set [6] it was 0.0206 mg/L (≈ 0.0336 µM); in data set [7] it was 1.24 mg/L (≈ 2.02 µM). In addition, the LC50 in data set [5] worked out at 13.8 ppm.

Regarding `COc1cccc2c1C(=O)c1c(O)c3c(c(O)c1C2=O)C[C@@](O)(C(=O)CO)C[C@@H]3O[C@H]1C[C@H](N)[C@H](O)[C@H](C)O1` [DOXORUBICIN], the EC50 in data set [1] was 0.0583 mg/L (≈ 0.107 µM); in data set [2], 0.00423 mg/L (≈ 0.00778 µM); in data set [3], 0.495 mg/L (≈ 0.911 µM); in data set [4] it was 0.0462 mg/L (≈ 0.085 µM); in data set [6], 0.00428 mg/L (≈ 0.00787 µM); in data set [7], 0.0498 mg/L (≈ 0.0916 µM). The same compound gave an LC50 in data set [5] of 2.57 ×10⁻¹ ppm.

The values above are taken from ChEMBL document CHEMBL1158295, “Five new monotetrahydrofuran ring acetogenins from the leaves of Annona muricata” (J Nat Prod, 1996).
